According to US20050085420A1, “Method of modulating apoptosis and compositions thereof” (priority 2003, published 2005):

How the values were obtained:
wt MEF cell lines [1] = experiment: BAK oligomerization by gel filtration after staurosporine, wt cells; type: cell-based, mouse
Procedure: (§1) FIG. 4F is a photograph depicting mitochondria isolated from wt or vdac2 -/- MEF cell lines with or without treatment with STS for 5 hours were solubilized in 2% CHAPS buffer. 200 μg of lysate was subjected to Superdex 200 (HR 10/30) gel filtration column chromatography. Fractions were analyzed by an immunoblot developed with anti-BAK antibody.
(§2) The chromatographic step of Superdex 200 (HR 10/30, Amersham-Pharmacia) was performed on an automatic fast protein liquid chromatography (FPLC) station (Amersham-Pharmacia) at 4° C. […] Fractions of 0.6 ml were collected, precipitated by trichloroacetic acid, and analyzed by an immunoblot (fractions 16-31) developed with an anti-BAK Ab.
(§3) In contrast, the response of wt- and vdac2-dificient cells was similar when the extrinsic death pathway was activated by TNFα (FIG. 4E). […] BAK already underwent oligomerization within 5 hours after staurosporine treatment in vdac2 -/- cells but not wt cells, as assessed by gel filtration (FIG. 4F) (X. Roucou, S. Montessuit, B. Antonsson, J. C. Martinou, Biochem J 368, 915-21. (2002)). […]

vdac2 -/- MEF cell lines [2] = experiment: BAK oligomerization by gel filtration after staurosporine, vdac2 -/- cells; type: cell-based, mouse
Procedure: as §1, §2, §3

wt MEF lines = experiment: Cytochrome c fluorescence microscopy after staurosporine, wt MEF line; type: cell-based, mouse; conditions: 1 μM STS, 4 hours
Procedure: (§4) FIG. 4D is a photograph depicting two-color fluorescence microscopy of wt and vdac2 -/- MEF lines at 4 hours following 1 μM STS. Red indicates cytochrome c and blue is Hoechst staining of DNA.
(§5) MEF cell lines treated with 1 μM staurosporine were harvested at various time points and lysed for 5 min in isotonic buffer containing 10 mM KCl, 5 mM MgCl2, 1 mM EDTA, 1 mM EGTA, 250 mM sucrose, 20 mM Hepes, pH 7.2, 0.025% digitonin, and complete protease inhibitors (Roche). Organelles that contain mitochondria were removed from the soluble cytosolic fraction by pelleting at 15000 g. Supernatant and mitochondrial pellets were solubilized in SDS-PAGE loading buffer and analyzed by an immunoblot, developed with an anti-cytochrome c Ab. Protein cross-linking, immunoblot, immunoprecipitation, isolation of mitochondria, cell viability assays, and anti-cytochrome c immunohistochemistry were described previously E. H. Cheng et al., Mol Cell 8, 705-11. (2001).

vdac2 -/- MEF cell lines [3] = experiment: Cytochrome c release assay (subcellular fractionation, immunoblot), vdac2 -/- cells; type: cell-based, mouse; conditions: 1 μM staurosporine
Procedure: (§6) FIG. 4C is a photograph depicting treatment of wt or vdac2 -/- MEF cell lines with 1 μM STS. The wt or vdac2 -/- MEF cell lines were subcellularly fractionated (see method) at indicated time points. Cytochrome c distribution in the cytosol versus mitochondria was assessed by immunoblot developed with an anti-cytochrome c antibody.
(§7) MEF cell lines treated with 1 μM staurosporine were harvested at various time points and lysed for 5 min in isotonic buffer containing 10 mM KCl, 5 mM MgCl2, 1 mM EDTA, 1 mM EGTA, 250 mM sucrose, 20 mM Hepes, pH 7.2, 0.025% digitonin, and complete protease inhibitors (Roche). Organelles that contain mitochondria were removed from the soluble cytosolic fraction by pelleting at 15000 g. Supernatant and mitochondrial pellets were solubilized in SDS-PAGE loading buffer and analyzed by an immunoblot, developed with an anti-cytochrome c Ab. […]
as §3

vdac2 -/- MEF lines = experiment: Cytochrome c fluorescence microscopy after staurosporine, vdac2 -/- MEF line; type: cell-based, mouse; conditions: 1 μM STS, 4 hours
Procedure: as §4, §5

wt MEF cell lines [4] = experiment: Cytochrome c release assay (subcellular fractionation, immunoblot), wt cells; type: cell-based, mouse; conditions: 1 μM staurosporine
Procedure: as §6, §7, §3

BAX = molecular target: T1, BAX (Mus musculus, UniProt Q07813); experiment: Co-precipitation of endogenous BAX with HA-tagged VDAC2; type: binding; conditions: wt MEF mitochondria, CHAPS, anti-HA immunoprecipitation
T1 construct: endogenous in cells; host or cells: wt MEFs transduced with HA-VDAC2 retrovirus; mitochondria solubilized in 1% CHAPS or 0.2% NP-40
T1 sequence (Q07813 whole entry): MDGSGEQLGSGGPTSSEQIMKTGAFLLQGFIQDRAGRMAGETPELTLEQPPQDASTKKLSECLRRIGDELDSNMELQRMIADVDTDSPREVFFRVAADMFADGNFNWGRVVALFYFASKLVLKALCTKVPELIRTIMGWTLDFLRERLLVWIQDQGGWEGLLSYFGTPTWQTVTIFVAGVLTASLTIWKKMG
Procedure: (§8) FIG. 2E is a photograph depicting mitochondria isolated from wt MEFs (upper panel) or Bax, Bak doubly deficient MEFs (lower panel), which were transduced with retrovirus expressing N-terminal HA-tagged VDAC2, BAK or BAX and were solubilized in either 1% CHAPS or 0.2% NP-40 buffer, followed by immunoprecipitation with an anti-HA antibody. The immunoprecipitates were analyzed by an immunoblot developed with anti-HA-Biotin, anti-BAK, anti-BAX, or anti-VDAC2 Abs as indicated.
(§9) An HA-tagged BAK, but not HA-tagged BAX co-precipitated endogenous VDAC2 (FIG. 2E).

BAK = molecular target: T2, BAK (Mus musculus, UniProt O08734); experiment: Co-precipitation of endogenous BAK with HA-tagged VDAC2; type: binding; conditions: wt MEF mitochondria, CHAPS, anti-HA immunoprecipitation
T2 construct: endogenous in cells; host or cells: wt MEFs transduced with HA-VDAC2 retrovirus; mitochondria solubilized in 1% CHAPS or 0.2% NP-40
T2 sequence (O08734 2-209 limits assumed): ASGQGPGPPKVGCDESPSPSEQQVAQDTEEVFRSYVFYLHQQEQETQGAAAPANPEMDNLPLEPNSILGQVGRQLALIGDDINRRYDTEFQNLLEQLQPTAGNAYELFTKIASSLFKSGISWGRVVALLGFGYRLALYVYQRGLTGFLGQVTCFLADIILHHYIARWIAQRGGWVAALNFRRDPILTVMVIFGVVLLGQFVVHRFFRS
T2 sequence (Q60930 1-295 partner): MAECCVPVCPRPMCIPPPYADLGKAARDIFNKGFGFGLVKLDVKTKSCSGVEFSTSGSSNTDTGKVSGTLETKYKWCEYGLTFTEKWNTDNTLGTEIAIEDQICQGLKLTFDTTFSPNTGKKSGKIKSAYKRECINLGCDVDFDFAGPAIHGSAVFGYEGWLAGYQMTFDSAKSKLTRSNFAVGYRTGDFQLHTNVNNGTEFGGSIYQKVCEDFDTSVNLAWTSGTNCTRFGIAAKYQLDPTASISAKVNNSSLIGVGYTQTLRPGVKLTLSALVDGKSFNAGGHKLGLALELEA
Procedure: as §8, §9

Bax -/- MEFs = experiment: Annexin-V cell death after retroviral expression of VDAC1 or VDAC2 in Bax -/- MEFs; type: cell-based, mouse; conditions: Bax -/- cells
Procedure: (§10) FIG. 3A are two graphs illustrating Bax -/- or Bak -/- MEFs at 2 days following retroviral expression of VDAC1, VDAC2, or GFP (MIG vector control), wherein the Bax -/- or Bak -/- MEFs were treated with 1.2 μM staurosporine (STS). Cell death was quantitated by flow cytometric detection of Annexin-V staining at indicated time points. Values shown are mean ±1 SD of three independent experiments.
(§11) FIG. 3B is a histogram depicting Bax -/- or Bak -/- MEFs at 2 days following retroviral expression of VDAC2 or GFP (MIG vector control), wherein the Bax -/- or Bak -/- MEFs were infected with tBID-expressing retrovirus. Cell death was quantitated by flow cytometric detection of Annexin-V staining at 24 hr. Values shown are mean ±1 SD of three independent experiments.
(§12) FIG. 6 are two graphs that depict Bax -/- or Bak -/- MEFs at 2 days following retroviral expression of VDAC1, VDAC2, or GFP (MIG vector control), wherein the Bax -/- or Bak -/- MEFs were treated with 10 μg/ml etoposide. Cell death was quantitated by flow cytometric detection of Annexin-V staining at indicated time points. Values shown are mean ±1 SD of three independent experiments.
(§13) Previous studies have shown that cells doubly deficient for BAX and BAK are resistant to intrinsic death stimuli, whereas cells singly deficient for BAX or BAK are still susceptible (M. C. Wei et al., Science 292, 727-30. (2001)). As VDAC2 interacts with BAK but not BAX, the ability of VDAC2 to modulate apoptosis mediated by BAK or BAX was tested. According to one hypothesis, VDAC2 might function as an inhibitor of BAK or VDAC2 itself might function as a proapoptotic factor once released from BAK. To address these alternatives VDAC 1 or VDAC2 was expressed in Bax -/- or Bak -/- singly deficient mouse embryonic fibroblasts (MEFs) followed by treatment with staurosporine or etoposide. […] Expression of VDAC2 inhibited tBID-induced apoptosis of Bax -/- cells but not Bak -/- cells, further supporting a selective role for VDAC2 in negatively regulating BAK-dependent apoptosis (FIG. 3B).

Bak -/- MEFs = experiment: Annexin-V cell death after retroviral expression of VDAC1 or VDAC2 in Bak -/- MEFs; type: cell-based, mouse; conditions: Bak -/- cells
Procedure: as §10, §11, §12, §13

vdac2 -/- MEFs = experiment: Re-expression of VDAC2 in vdac2 -/- MEFs, Annexin-V cell death; type: cell-based, mouse; conditions: normal physiologic levels, 1.2 μM staurosporine 6 hr
Procedure: FIG. 3E is a histogram depicting infection of primary vdac2 -/- MEFs with retrovirus expressing GFP (MIG vector control) or VDAC2-IRES-GFP. At 36 hours the GFP-positive cells isolated by MoFlo sorting were treated with 1.2 μM staurosporine for 6 hr. Cell death was quantitated by flow cytometric detection of Annexin-V staining. Values shown are mean ±1 SD of three independent experiments.

[5] = retroviral expression, 1.2 μM staurosporine or 10 μg/ml etoposide, Annexin-V
[6] = tBID-expressing retrovirus, Annexin-V at 24 hr

CN[C@@H]1C[C@H]2O[C@@](C)([C@@H]1OC)n1c3ccccc3c3c4c(c5c6ccccc6n2c5c31)C(=O)NC4 [staurosporine]
time to BAK oligomerization (wt MEF cell lines [1]): ~10 h
time to BAK oligomerization (vdac2 -/- MEF cell lines [2]): ≤ 5 h
cells with diffuse cytosolic staining for cytochrome c (wt MEF lines): 16%
time of complete release of cytochrome c (vdac2 -/- MEF cell lines [3]): ≤ 5 h
time of partial release of cytochrome c into the cytosol (vdac2 -/- MEF cell lines [3]): ≤ 3 h
cells with diffuse cytosolic staining for cytochrome c (vdac2 -/- MEF lines): 83%
release of cytochrome c at 3 and 5 hours (wt MEF cell lines [4]): had not initiated any release of cytochrome c

B1: HA-tagged VDAC2: N-terminal HA-tagged murine VDAC2, retrovirally expressed (protein)
chain: T2 sequence (Q60930 1-295 partner)
modifications: left off: small tags and cut ends
notes: N-terminal HA-tagged murine VDAC2, retrovirally expressed
co-precipitation of endogenous BAX (BAX): not
co-precipitation of endogenous BAK (BAK): efficiently co-precipitated

B2: VDAC2: Voltage-Dependent Anion Channel-2, murine, retrovirally expressed (protein, UniProt Q60930 1-295, looked up)
Non-selective voltage-gated …: T2 sequence (Q60930 1-295 partner)
apoptosis after staurosporine or etoposide (Bax -/- MEFs; [5]): significantly inhibited apoptosis
tBID-induced apoptosis (Bax -/- MEFs; [6]): inhibited
apoptosis after staurosporine or etoposide (Bak -/- MEFs; [5]): no effect
tBID-induced apoptosis (Bak -/- MEFs; [6]): not
susceptibility to apoptosis after re-expression (vdac2 -/- MEFs): reversed the increased susceptibility to apoptosis
